Results reported in the supplement of paper PMC5908809.

Assays:
[1] = system: normal NK cells expanded with K562-aAPC; experiment: percent inhibition of viability; higher = more inhibition; settings: 72 h, IL-2 2.5 ng/mL
Procedure: (§1)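 Drug sensitivity and resistance testing on K562-aAPC-expanded normal NK cells: 5 concentrations (10-fold steps over a 10,000-fold range), 72 h at 37 °C, viability by CellTiter-Glo normalised to DMSO and benzethonium chloride controls; DSS from the fitted curve.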

DERL-7 (IL-2 2.5 ng/mL) [2] = experiment: as above; settings: 72 h
IMC-1 (IL-2 20 ng/mL) [3] = experiment: as above; settings: 72 h
KAI3 (IL-2 2.5 ng/mL) [4] = experiment: as above; settings: 72 h
KHYG-1 (IL-2 2.5 ng/mL) [5] = experiment: as above; settings: 72 h
NK-92 (IL-2 2.5 ng/mL) [6] = experiment: as above; settings: 72 h
NK-YS (IL-2 2.5 ng/mL) [7] = experiment: as above; settings: 72 h
NKL (IL-2 2.5 ng/mL) [8] = experiment: as above; settings: 72 h
SNK-6 (IL-2 2.5 ng/mL) [9] = experiment: as above; settings: 72 h
YT (IL-2 2.5 ng/mL) [10] = experiment: as above; settings: 72 h
[11] = system: normal primary NK cells, pool 1 (3 donors) (IL-2 2.5 ng/mL); experiment: as above; settings: 72 h
[12] = system: normal primary NK cells, pool 1 (3 donors), resting (IL-2 0 ng/mL); experiment: as above; settings: 72 h
[13] = system: normal primary NK cells, pool 2 (3 donors) (IL-2 2.5 ng/mL); experiment: as above; settings: 72 h
[14] = system: normal primary NK cells, pool 3 (3 donors) (IL-2 2.5 ng/mL); experiment: as above; settings: 72 h
[15] = system: normal NK cells expanded with K562-aAPC; experiment: drug sensitivity score (DSS) (DSS units); higher = more sensitive; extreme values may be limits of the assay; settings: 72 h; IL-2 2.5 ng/mL
Procedure: as §1

DERL-7 (IL-2 2.5 ng/mL) [16] = experiment: as above; settings: 72 h
IMC-1 (IL-2 20 ng/mL) [17] = experiment: as above; settings: 72 h
KAI3 (IL-2 2.5 ng/mL) [18] = experiment: as above; settings: 72 h
KHYG-1 (IL-2 2.5 ng/mL) [19] = experiment: as above; settings: 72 h
NK-92 (IL-2 2.5 ng/mL) [20] = experiment: as above; settings: 72 h
NK-YS (IL-2 2.5 ng/mL) [21] = experiment: as above; settings: 72 h
NKL (IL-2 2.5 ng/mL) [22] = experiment: as above; settings: 72 h
SNK-6 (IL-2 2.5 ng/mL) [23] = experiment: as above; settings: 72 h
YT (IL-2 2.5 ng/mL) [24] = experiment: as above; settings: 72 h
[25] = system: normal primary NK cells, pool 1 (3 donors) (IL-2 2.5 ng/mL); experiment: as above; settings: 72 h
[26] = system: normal primary NK cells, pool 1 (3 donors), resting (IL-2 0 ng/mL); experiment: as above; settings: 72 h
[27] = system: normal primary NK cells, pool 2 (3 donors) (IL-2 2.5 ng/mL); experiment: as above; settings: 72 h
[28] = system: normal primary NK cells, pool 3 (3 donors) (IL-2 2.5 ng/mL); experiment: as above; settings: 72 h

Cc1ccc(-c2cc(C(F)(F)F)nn2-c2ccc(S(N)(=O)=O)cc2)cc1 [Celecoxib] (max concentration tested 10000 nM)
percent inhibition of viability [%]
Settings	1 nM	10 nM	100 nM	1000 nM	10000 nM
DERL-7 (IL-2 2.5 ng/mL) [2]	-4.04	-0.66	2.98	0.77	20.1
IMC-1 (IL-2 20 ng/mL) [3]	-1.63	4.12	3.17	8.92	21.4
KAI3 (IL-2 2.5 ng/mL) [4]	-0.1	5.86	3.78	10.9	16.6
KHYG-1 (IL-2 2.5 ng/mL) [5]	-2.14	0.22	3.78	5.35	11.5
NK-92 (IL-2 2.5 ng/mL) [6]	-11.1	9.29	13.9	6.91	36.8
NK-YS (IL-2 2.5 ng/mL) [7]	3.79	1.41	5.74	5.5	17.7
NKL (IL-2 2.5 ng/mL) [8]	12.9	8.06	8.99	8.49	13.6
SNK-6 (IL-2 2.5 ng/mL) [9]	7.19	19.3	11.5	33.2	29.1
YT (IL-2 2.5 ng/mL) [10]	6.8	6.48	10.3	10.8	21.6
[1]	5.69	5.19	8.1	13.1	11.9
[11]	-3.14	-6.46	-5.04	-13.6	17.4
[12]	-5.64	-19.9	-6.8	-14.5	38.8
[13]	-5.46	-3.07	8.51	-1.27	21.4
[14]	-11.6	1.86	9.55	-0.12	12.8

Settings	drug sensitivity score
DERL-7 (IL-2 2.5 ng/mL) [16]	0.68
IMC-1 (IL-2 20 ng/mL) [17]	1.17
KAI3 (IL-2 2.5 ng/mL) [18]	0.73
KHYG-1 (IL-2 2.5 ng/mL) [19]	0
NK-92 (IL-2 2.5 ng/mL) [20]	2.8
NK-YS (IL-2 2.5 ng/mL) [21]	0.44
NKL (IL-2 2.5 ng/mL) [22]	0
SNK-6 (IL-2 2.5 ng/mL) [23]	7.44
YT (IL-2 2.5 ng/mL) [24]	1.78
[15]	0.46
[25]	0.17
[26]	1.32
[27]	0.61
[28]	0.08

CC(C)[C@H]1C(=O)N[C@@H](CCCNC(=N)N)C(=O)NCC(=O)N[C@@H](CC(=O)O)C(=O)N[C@H](Cc2ccccc2)C(=O)N1C [Cilengitide] (max concentration tested 10000 nM)
percent inhibition of viability [%]
Settings	1 nM	10 nM	100 nM	1000 nM	10000 nM
DERL-7 (IL-2 2.5 ng/mL) [2]	1.94	-0.89	5.16	-1.67	1.74
IMC-1 (IL-2 20 ng/mL) [3]	-4.13	-2.67	-2.6	-4.07	-10
KAI3 (IL-2 2.5 ng/mL) [4]	0.99	-4.51	0.53	-7.41	-4.2
KHYG-1 (IL-2 2.5 ng/mL) [5]	-4.74	-8.58	-8.46	-5.89	-5.46
NK-92 (IL-2 2.5 ng/mL) [6]	-6.89	-15.6	-2.78	-19.4	-3.46
NK-YS (IL-2 2.5 ng/mL) [7]	3.77	-3.77	-3.08	-1.52	-1.33
NKL (IL-2 2.5 ng/mL) [8]	-5.73	-8.69	-8.49	-3.48	-5.17
SNK-6 (IL-2 2.5 ng/mL) [9]	5.33	-1.64	-18.7	-5.25	-3.56
YT (IL-2 2.5 ng/mL) [10]	-3.44	-9.37	-2	-8.27	-2.28
[1]	-8.83	-11.2	-7.88	-10.2	-11.3
[11]	-11.5	-10.7	-11.7	-4.42	-5.41
[12]	-16.2	-13.2	-18.2	-14	-17.6
[13]	-8.85	-4.43	-5.82	-9.18	-7.87
[14]	-10.7	-5.35	-6.3	-9.92	-10.2

Settings	drug sensitivity score
DERL-7 (IL-2 2.5 ng/mL) [16]	0
IMC-1 (IL-2 20 ng/mL) [17]	0
KAI3 (IL-2 2.5 ng/mL) [18]	0
KHYG-1 (IL-2 2.5 ng/mL) [19]	0
NK-92 (IL-2 2.5 ng/mL) [20]	0
NK-YS (IL-2 2.5 ng/mL) [21]	0
NKL (IL-2 2.5 ng/mL) [22]	0
SNK-6 (IL-2 2.5 ng/mL) [23]	0
YT (IL-2 2.5 ng/mL) [24]	0
[15]	0
[25]	0
[26]	0
[27]	0
[28]	0

Nc1nc(Cl)nc2c1ncn2[C@H]1C[C@H](O)[C@@H](CO)O1 [Cladribine] (max concentration tested 1000 nM)
percent inhibition of viability [%]
Settings	0.1 nM	1 nM	10 nM	100 nM	1000 nM
DERL-7 (IL-2 2.5 ng/mL) [2]	-4.72	-1.74	2.44	83.3	100
IMC-1 (IL-2 20 ng/mL) [3]	-1.93	-4.54	-8.55	59.4	99.9
KAI3 (IL-2 2.5 ng/mL) [4]	-17.3	-11.1	-4.18	61.5	92.2
KHYG-1 (IL-2 2.5 ng/mL) [5]	-2.1	-6.64	0.12	102	99.4
NK-92 (IL-2 2.5 ng/mL) [6]	-7.06	-4.86	2.88	92.3	97.7
NK-YS (IL-2 2.5 ng/mL) [7]	-8.76	-10.6	-9.2	7.65	88.2
NKL (IL-2 2.5 ng/mL) [8]	-13.2	-8.81	-9.87	104	98.6
SNK-6 (IL-2 2.5 ng/mL) [9]	11.6	5.52	8.41	66.9	91.5
YT (IL-2 2.5 ng/mL) [10]	-4	-5.35	-6.95	5.62	56.9
[1]	-1.61	-1.55	30.3	100	100
[11]	-5.25	-7.26	23.2	93.1	96.5
[12]	-18.2	-14.8	62	90.2	90
[13]	-13.2	-12.7	24.4	90.6	93.7
[14]	-12.6	-10.5	18.2	87.7	97

Settings	drug sensitivity score
DERL-7 (IL-2 2.5 ng/mL) [16]	15.4
IMC-1 (IL-2 20 ng/mL) [17]	12.5
KAI3 (IL-2 2.5 ng/mL) [18]	12.2
KHYG-1 (IL-2 2.5 ng/mL) [19]	18.2
NK-92 (IL-2 2.5 ng/mL) [20]	17.1
NK-YS (IL-2 2.5 ng/mL) [21]	6.1
NKL (IL-2 2.5 ng/mL) [22]	17.6
SNK-6 (IL-2 2.5 ng/mL) [23]	13.8
YT (IL-2 2.5 ng/mL) [24]	3.98
[15]	22.4
[25]	20.3
[26]	23.5
[27]	20.3
[28]	18.4
